How the values were obtained:
Type in all cases: cell-based
[1] = molecular target: T1, ΔF508-CFTR (Homo sapiens, UniProt P13569, DEL508-508); assay: CFTR cell surface levels using HRP-tagged ΔF508-CFTR expressing CFBE cells, in the presence of a co-corrector; conditions: HRP-tagged ΔF508-CFTR CFBE cells, in the presence of 3 μM co-corrector; for EC50: read-out: EC50
T1 construct: host or cells: CFBE41o-, doxycycline-inducible
In short: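 Chemiluminescent read-out of surface HRP (15 min, dark) after PBS washes. Activity is normalized as 100×(sample−DMSO)/(3 μM co-corrector alone−DMSO).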

[2] = molecular target: T1, ΔF508-CFTR; assay: CFTR cell surface levels using HRP-tagged ΔF508-CFTR expressing CFBE cells, intrinsic corrector capacity; design: % Activation: concentration or dose not given beside the values; conditions: HRP-tagged ΔF508-CFTR expressing CFBE41o- cells, compound alone (intrinsic corrector capacity), 20 hours at 33° C.; for EC50: read-out: EC50
In short: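 Read-out: chemiluminescent HRP activity of ECL4-HRP-tagged ΔF508-CFTR at the cell surface, 15 min substrate in dark. Normalized as 100×(sample−DMSO)/(positive control−DMSO).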

[3] = molecular target: T2, CFTR ΔF508 (Homo sapiens, UniProt P13569, DEL508-508); assay: Chronic TECC assay, primary bronchial epithelial cells of CF patients homozygous for CFTR ΔF508 (corrector, co-corrector and potentiator); conditions: chronic TECC, AUC = full area under the curve upon forskolin stimulation; for % Activity at 3 μM (AUC**): test compound at 3 μM; for EC50: read-out: EC50 (nM) (AUC**)
T2 construct: bronchial epithelial cells isolated from CF patients homozygous for the CFTR ΔF508 mutation; McGill University; Asterand; University of North Carolina hAEC-CF; host or cells: primary human bronchial epithelial cells from CF patients homozygous for ΔF508, differentiated at air-liquid interface
T2 sequence (P13569 with tags, fused parts or gaps DEL508-508): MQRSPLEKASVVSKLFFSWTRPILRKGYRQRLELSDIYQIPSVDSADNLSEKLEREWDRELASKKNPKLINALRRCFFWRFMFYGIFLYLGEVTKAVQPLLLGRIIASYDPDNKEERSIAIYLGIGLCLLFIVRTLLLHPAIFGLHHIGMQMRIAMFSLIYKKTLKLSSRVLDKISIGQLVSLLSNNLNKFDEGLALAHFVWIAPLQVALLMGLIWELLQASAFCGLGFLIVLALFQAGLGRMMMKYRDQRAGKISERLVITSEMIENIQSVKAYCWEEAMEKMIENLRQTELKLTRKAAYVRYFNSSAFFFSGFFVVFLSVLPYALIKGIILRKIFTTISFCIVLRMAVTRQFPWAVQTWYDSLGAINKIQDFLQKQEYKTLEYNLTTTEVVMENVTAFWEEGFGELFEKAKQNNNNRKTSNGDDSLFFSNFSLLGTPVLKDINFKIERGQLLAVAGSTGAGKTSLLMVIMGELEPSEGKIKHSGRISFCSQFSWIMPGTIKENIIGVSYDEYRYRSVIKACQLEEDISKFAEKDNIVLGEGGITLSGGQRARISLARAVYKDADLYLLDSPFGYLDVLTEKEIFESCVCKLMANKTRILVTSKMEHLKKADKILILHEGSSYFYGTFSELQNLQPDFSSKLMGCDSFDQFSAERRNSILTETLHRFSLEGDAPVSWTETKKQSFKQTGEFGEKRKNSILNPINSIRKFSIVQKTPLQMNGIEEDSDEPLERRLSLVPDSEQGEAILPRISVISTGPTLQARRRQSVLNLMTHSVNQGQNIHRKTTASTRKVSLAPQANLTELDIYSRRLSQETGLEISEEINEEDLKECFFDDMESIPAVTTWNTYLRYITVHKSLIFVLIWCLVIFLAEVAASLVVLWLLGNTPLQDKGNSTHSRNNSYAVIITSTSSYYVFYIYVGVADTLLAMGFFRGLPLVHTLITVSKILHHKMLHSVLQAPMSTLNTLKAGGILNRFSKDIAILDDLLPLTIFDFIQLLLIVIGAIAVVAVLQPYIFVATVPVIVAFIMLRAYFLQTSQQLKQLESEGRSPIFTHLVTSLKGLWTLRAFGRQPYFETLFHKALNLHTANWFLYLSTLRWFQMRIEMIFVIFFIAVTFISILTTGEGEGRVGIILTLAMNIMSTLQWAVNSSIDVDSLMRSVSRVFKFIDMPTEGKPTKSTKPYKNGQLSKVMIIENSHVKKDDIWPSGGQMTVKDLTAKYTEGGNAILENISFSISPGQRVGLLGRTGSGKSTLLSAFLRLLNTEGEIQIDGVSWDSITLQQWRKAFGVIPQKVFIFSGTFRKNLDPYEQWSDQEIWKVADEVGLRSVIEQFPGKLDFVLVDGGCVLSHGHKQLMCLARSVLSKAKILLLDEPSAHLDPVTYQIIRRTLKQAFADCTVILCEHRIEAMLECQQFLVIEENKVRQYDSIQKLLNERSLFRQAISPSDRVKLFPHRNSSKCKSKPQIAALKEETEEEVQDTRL
In short: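 Primary bronchial epithelial cells from ΔF508-homozygous CF patients on collagen IV-coated Transwells were chronically treated with test compound plus corrector and potentiator, which were re-added before recording. Ieq was derived from PD and Rt in NaCl-Ringer, pH 7.4, at 37° C, with apical amiloride and bilateral forskolin, recorded every 2 min over 20 min. Ieq increase was normalized to controls, and EC50 was taken from per-well concentrations.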

T1 sequence (P13569 with tags, fused parts or gaps DEL508-508): as above

SMILES | % Activation [1] | EC50 [1] | % Activation [2] | EC50 [2] | % Activity at 3 μM (AUC**) [3] | % Activity at 1 μM (AUC**) ([3]; test compound at 1 μM) | EC50 [3]
COCC1CCN(c2cc(C(=O)NS(=O)(=O)N3CCC(N4CCOCC4)C3)nc3c2c(C2CCC2)nn3-c2ccc(F)cc2)CC1 (centres unmarked) [Compound 608, 3-cyclobutyl-1-(4-fluorophenyl)-4-[4-(methoxymethyl)piperidin-1-yl]-N-[3-(morpholin-4-yl)pyrrolidine-1-sulfonyl]-1H-pyrazolo[3,4-b]pyridine-6-carboxamide] | 365.7% | 54.8 nM | 194.67% | 104 nM | 442.1916% |  | 
COCC1CCN(c2cc(C(=O)NS(=O)(=O)N3CCN(C4CC4)CC3)nc3c2c(C2CCC2)nn3-c2ccc(F)cc2)CC1 [Compound 609, 3-cyclobutyl-N-(4-cyclopropylpiperazine-1-sulfonyl)-1-(4-fluorophenyl)-4-[4-(methoxymethyl)piperidin-1-yl]-1H-pyrazolo[3,4-b]pyridine-6-carboxamide] | 414.2% | 109 nM | 202.53% | 249 nM | 306.6667% |  | 
CC(C)N1CCC(c2cc(C(=O)NS(C)(=O)=O)nc3c2c(C2CCC2)nn3-c2ccc(F)cc2)CC1 [Compound 611, 3-cyclobutyl-1-(4-fluorophenyl)-N-(methanesulfonyl)-4-[1-(propan-2-yl)piperidin-4-yl]-1H-pyrazolo[3,4-b]pyridine-6-carboxamide] | 236.7% | 2620 nM | 77.39% | 3330 nM | 176.7495% |  | 
CN(C)S(=O)(=O)NC(=O)c1cc(N2CCC3(CC2)CCN(C2COC2)CC3)c2c(C3CCC3)nn(-c3ccc(F)cc3)c2n1 [Compound 614, 3-cyclobutyl-N-(dimethylsulfamoyl)-1-(4-fluorophenyl)-4-[9-(oxetan-3-yl)-3,9-diazaspiro[5.5]undecan-3-yl]-1H-pyrazolo[3,4-b]pyridine-6-carboxamide] | 381.35% | 171 nM | 172% | 211 nM | 407.7118% |  | 
CC(C)Oc1nccc(-n2nc(C3CCC3)c3c(N4CCC(N5CCOCC5)CC4)cc(C(=O)NS(=O)(=O)N(C)C)nc32)n1 [Compound 621, 3-cyclobutyl-N-(dimethylsulfamoyl)-4-[4-(morpholin-4-yl)piperidin-1-yl]-1-{2-[(propan-2-yl)oxy]pyrimidin-4-yl}-1H-pyrazolo[3,4-b]pyridine-6-carboxamide] | 348.55% | 77 nM | 160.45% | 173 nM | 256.6667% |  | 
CN(C)S(=O)(=O)NC(=O)c1cc(N2CCC(N3CCOCC3)CC2)c2c(C3CCC3)nn(-c3ccc4c(c3)OC(F)(F)O4)c2n1 [Compound 623, 3-cyclobutyl-1-(2,2-difluoro-2H-1,3-benzodioxol-5-yl)-N-(dimethylsulfamoyl)-4-[4-(morpholin-4-yl)piperidin-1-yl]-1H-pyrazolo[3,4-b]pyridine-6-carboxamide] | 424.77% | 55.6 nM | 238.53% | 113 nM | 433.3333% |  | 
CN1CCN(S(=O)(=O)NC(=O)c2cc(N3CCC(N4CCOCC4)CC3)c3c(C4CCC4)nn(-c4ccc(F)cc4)c3n2)CC1 [Compound 624, 3-cyclobutyl-1-(4-fluorophenyl)-N-(4-methylpiperazine-1-sulfonyl)-4-[4-(morpholin-4-yl)piperidin-1-yl]-1H-pyrazolo[3,4-b]pyridine-6-carboxamide] | 274.15% | 549 nM | 100.59% | 1200 nM | 310% |  | 
CC(C)N1CCC2CN(c3cc(C(=O)NS(=O)(=O)N(C)C)nc4c3c(C3CCC3)nn4-c3ccc(F)cc3)CCC21 (centres unmarked) [Compound 625, 3-cyclobutyl-N-(dimethylsulfamoyl)-1-(4-fluorophenyl)-4-[1-(propan-2-yl)octahydro-5H-pyrrolo[3,2-c]pyridin-5-yl]-1H-pyrazolo[3,4-b]pyridine-6-carboxamide] | 353.87% | 126 nM | 182.2% | 223 nM |  | 403.3333% | 
CN(C)S(=O)(=O)NC(=O)c1cc(N2CCC3C(CCN3C3CCC3)C2)c2c(C3CCC3)nn(-c3ccc(F)cc3)c2n1 (centres unmarked) [Compound 626, 3-cyclobutyl-4-(1-cyclobutyloctahydro-5H-pyrrolo[3,2-c]pyridin-5-yl)-N-(dimethylsulfamoyl)-1-(4-fluorophenyl)-1H-pyrazolo[3,4-b]pyridine-6-carboxamide] | 418.4% | 111 nM | 206.6% | 151 nM | 387.4854% |  | 
CN(C)S(=O)(=O)NC(=O)c1cc(N2CCC3C(CCN3C3COC3)C2)c2c(C3CCC3)nn(-c3ccc(F)cc3)c2n1 (centres unmarked) [Compound 627, 3-cyclobutyl-N-(dimethylsulfamoyl)-1-(4-fluorophenyl)-4-[1-(oxetan-3-yl)octahydro-5H-pyrrolo[3,2-c]pyridin-5-yl]-1H-pyrazolo[3,4-b]pyridine-6-carboxamide] | 348.57% | 24.8 nM | 162.47% | 82.3 nM | 446.6667% |  | 
CN(C)S(=O)(=O)NC(=O)c1cc(N2CCC3C(CCN3C3CCOCC3)C2)c2c(C3CCC3)nn(-c3ccc(F)cc3)c2n1 (centres unmarked) [Compound 628, 3-cyclobutyl-N-(dimethylsulfamoyl)-1-(4-fluorophenyl)-4-[1-(oxan-4-yl)octahydro-5H-pyrrolo[3,2-c]pyridin-5-yl]-1H-pyrazolo[3,4-b]pyridine-6-carboxamide] | 477.32% | 132 nM | 283.25% | 425 nM | 473.0586% |  | 88.4 nM
CNS(=O)(=O)NC(=O)c1cc(N2CCC(N3CCC(OC)CC3)CC2)c2c(C3CCC3)nn(-c3ccc(F)cc3)c2n1 [Compound 629, 3-cyclobutyl-1-(4-fluorophenyl)-4-(4-methoxy[1,4'-bipiperidin]-1'-yl)-N-(methylsulfamoyl)-1H-pyrazolo[3,4-b]pyridine-6-carboxamide] | 546.75% | 267 nM | 337.34% | 517 nM | 153.3918% |  | 6.85 nM

From US10259810B2, “N-sulfonylated pyrazolo[3,4-b]pyridin-6-carboxamides and method of use” (AbbVie S.à.r.l., priority 2015, dated 2019)
